Results reported in patent publication US20250170239A1, “CELLULAR REPROGRAMMING BY TARGETING THE GOLGI APPARATUS” (MUSC Foundation for Research Development, priority 2023, published 2025).

Assays:
[1] = tested on: Pmel CD8+ T cells; conditions: 3 days gp100 and IL2 +/− 0.5 mM GYY4137
Procedure: Different metabolites' intracellular levels were determined by performing comprehensive hydrophilic metabolites analysis using LC/MS platform (Metabolomics Core Facility, Northwestern University). Data were then analyzed using MetaboAnalyst software. Samples were loaded equivalently across the platform and normalized to Bradford values before statistical analysis.

[2] = tested on: Golgi^lo T cells; conditions: GYY4137 (0.5 mM) 3 days, stimulated with gp100
Source text: Cells were subsequently stimulated with gp100 antigen and analyzed for production of cytokines by FACS (n=4). (FIG. 25B) Quantification of FACS MFI values for MitoTracker Deep Red FM stain in Golgi^hi vs. Golgi^lo cells (n=4 independent samples). (FIG. 25C) Real-time flux in OCR measured using Seahorse metabolic flux analysis. Shown is the quantification of mean oxygen consumption rate (OCR) throughout the assay, spare respiratory capacity (SRC), maximal respiration, and basal respiration (n=experimental replicates representative of 3 separate experiments). (FIG. 25D) FACS sorted Golgi^hi vs. Golgi^lo melanoma epitope gp100 TCR reactive CD8+ T cells from Pmel mouse were analyzed using transmission electron microscopy (TEM) to evaluate mitochondria and Golgi morphology. (FIG. 25E-25H) Global metabolomics analysis was performed on Golgi^hi vs. Golgi^lo Pmel T cells and analyzed for PCA (FIG. 25E) and pathway enrichment (FIG. 25F). […] (FIGS. 25M and 25N) Human CD19 CAR-T cells were expanded and sorted into Golgi^hi and Golgi^lo based on BODIPY TR Ceramide dye fluorescence and were co-cultured at a 1:1 ratio with Raji cells. (FIG. 25M) The percentage of viable Raji cells remaining after 24 hours was analyzed using FACS. (FIG. 25N) Expression of Perforin and Granzyme B was assessed using FACS in sorted CD19 CAR-T cells following co-culture with Raji cells. […]

[3] = in culture; cited from earlier work
[4] = tested on: human CD19 CAR-T cells; conditions: 3 days IL2 +/− 0.5 mM GYY4137
Procedure: Quantification of oxygen consumption rate (OCR), spare respiratory capacity (SRC), maximal respiration, and basal respiration (n=10 experimental replicates representative of 3 separate experiments). […] Shown is the quantification of mean oxygen consumption rate (OCR), spare respiratory capacity (SRC), maximal respiration, and basal respiration. Data shown represent the mean±SEM and were analyzed by two-sided Student's t-test or one-way ANOVA. ns, p-value >0.05; p-value *≤0.05; **≤0.01; ***≤0.001; ****≤0.0001.
(§1) Oxygen consumption rate (OCR) and extracellular acidification rate (ECAR) were determined using the Seahorse Xfe96 analyzer (Agilent Technologies, Santa Clara, CA). Briefly, T cells (0.5×10^6/well) were plated on a Cell-Tak coated Seahorse culture plate for 30 min. OCR, a measure of OXPHOS, was analyzed under basal condition, or in response to 1.0 μM oligomycin, 1.0 μM fluoro-carbonyl cyanide phenylhydrazone (FCCP) and 2 μM rotenone, plus 100 nM antimycin A. ECAR, a measure of glycolysis, was measured under basal conditions and in response to glucose (5.5 mM), Oligomycin (1.0 μM), and 2-deoxyglucose (2-DG) (100 mM). All reagents were purchased from Sigma-Aldrich, St. Louis, MO.

[5] = tested on: Pmel CD8+ T cells; test: FACS phenotyping (Tcm, stemness markers) of activated Pmel T cells; assay type: cell-based, mouse
Source text: It was next determined if restoring H2S levels in activated T cells would alter their phenotype. To achieve steady-state levels of H2S in the T cell culture media, water-soluble H2S donor GYY4137 that slowly releases sustained levels of H2S up to 7 days in culture was used (Lee Z. W., et al., 2011, PLOS One, 6(6):e21077).

[6] = tested on: Pmel T cells; conditions: H2S treated vs control
Procedure: Cells were treated+/−H2S for 3 days of activation followed by 3 days of expansion. For analysis of differentially reactive cysteine residues, the sample preparation and analysis were as described by Gottlieb et al. with minor modifications.72 Cells were lysed in freshly made 9 M urea, 50 mM Tris pH 8 buffer with 100 units/mL Universal Nuclease (Thermo Fisher, Pierce cat #88702). To label free thiols, lysis buffer was supplemented with either 55 mM of stable isotope labeled light (I12C2ONH4) or heavy (I13CD213CONH2) iodoacetamide (Sigma, cat #721328) for control or H2S treated cells, respectively. Equal amounts of heavy or light labeled proteins from 3 biological replicates were combined and reducible thiols were reduced with 70 mM dithiothreitol for 45 min at 25° C. […] Two μg aliquots of peptides from each fraction, obtained using ZipTips with 0.6 μL C18 resin (Millipore, Burlington, MA cat #ZTC18S096), were analyzed by LC-MS/MS on an Easy-nLC 1200 coupled to a Orbitrap Fusion Lumos MS (Thermo Scientific, Waltham, MA). […] Ions were detected in the orbitrap. […]
To control for changes in protein expression, an aliquot of each uncombined, labeled protein sample was analyzed using a label free proteomic approach (MaxQuant LFQ). Proteins were digested as above, and peptides were analyzed using an U3000 nano LC system coupled to an Orbitrap Elite MS (Thermo Scientific). […]

[7] = tested on: human PBMCs; conditions: vehicle control or 0.5 mM GYY4137
Procedure: (FIG. 21A) Levels of intracellular glutathione assessed using FACS by employing ThiolTracker Violet dye in control CD19 CAR-T cells or CAR-T cells overexpressing Cbs (CbstdCD19-CAR-T) (n=3). (FIG. 21B) 12 hour Thapsigargin (700 nM) treatment was used to induce ER stress in WT T cells, Cbs-KO T cells, and Cbs-KO T cells+H2S. Levels of phosphorylated PERK were assessed by FACS (n=3). (FIG. 21C) Pmel T cells were treated with either Thapsigargin (700 nM) or Monensin (1 mM) for 12 hours, followed by staining for phosphorylated PERK (p-PERK) and GM130 to assess ER stress and Golgi stress, respectively (n=4). (FIG. 21D) Activated Pmel T cells were treated for 12 hours with either vehicle control or 1 mM Monensin (“+Golgi stress”) before being stained for giantin to assess Golgi dispersion. […] (FIG. 21E) Representative confocal microscopy images of mitochondria (Tom20) and Golgi (giantin) in human PBMCs treated with vehicle control or 0.5 mM GYY4137.
Alexa Fluor 488 (anti-Giantin) and Alexa Fluor 647 (anti-TOMM20) fluorescence were imaged in a Zeiss LSM 880 NLO inverted laser scanning confocal microscope (Thornwood, NY) using a 63× 1.4 N.A. plan-apochromat oil immersion lens. Alexa Fluor 488 and Alexa Fluor 647 were excited at 488 nm and 633 nm, respectively. Emitted light was detected with an Airyscan super-resolution detector at BP 495-550 nm for Giantin label and LP 654 nm for TOMM20. […]

[8] = tested on: Foxo1; test: Nuclear vs cytoplasmic Foxo1 by western blot; assay type: cell-based, mouse; conditions: GYY4137 0.5 mM, 3 days
Procedure: (FIG. 18C) NAD+ and nicotinamide quantification from metabolomics dataset.
For evaluation of the protein level, cell pellets were washed in PBS and lysed in RIPA buffer (Thermo Fisher Scientific, Waltham, MA), including protease/phosphatase inhibitors, vortexed, and incubated for 20 minutes on ice. Cell lysates were then centrifuged at 12,000 rpm for 15 min at 4° C. The supernatants were collected, and proteins were quantified with a BCA protein assay kit (Thermo Fisher Scientific, Waltham, MA). For immunoblot analyses, 20 μg of protein lysates per sample were denatured in 4× Loading dye and boiled using a heating block at 95 degrees for 10 minutes before loading to SDS gradient gels 4%-20% (Bio-Rad Criterion, 1h runs). Gels were semi-dry transferred onto PVDF, and the membranes were blocked with 3% milk in 0.1% TBST. The membraneNext, the membrane was probed with the following primary antibodies: anti-Prdx4 (Proteintech, 10703-1-AP), anti-eIF2a (Cell Signaling Technology, #9722), or anti-β-Actin (Signaling Technology, #4967L) overnight at 4° C. followed by one-hour incubation with HRP-conjugated secondary antibody (Cell Signaling Technology, Danvers, MA) and using a Clarity Western ECL Substrate (Bio-Rad, Hercules, CA).

[9] = tested on: Pmel T cells; conditions: activated in presence of H2S donor
Procedure: as §1

[10] = tested on: TILs isolated from B16-F10 tumors; conditions: expanded +/− GYY4137
Procedure: To obtain tumor-infiltrating T cells (TILs) from subcutaneously established solid B16-F10 melanoma-bearing mice, tumors were excised, chopped finely using tweezers and scissors, and then digested with 2 mg/ml collagenase type IV (Stemcell Technologies, Vancouver, BC) for 45 min. The tumors were filtered through […] (BD Biosciences, San Jose, CA). The cell suspension was washed in culture medium twice by centrifugation at 1500 rpm for 10 min at 4° C. After the second wash, the cells were re-suspended in 6 ml PBS and layered carefully over 3 ml Ficoll-paque (GE Healthcare) followed by centrifugation at 1500 rpm for 30 min at room temperature. The enriched TILs obtained at the interface as a thin buffy layer were washed with PBS twice and finally re-suspended in FACS staining buffer for further staining procedures.

## C1COCCN1.COc1ccc(P(=S)(S)N2CCOCC2)cc1 (stereo not shown) [GYY4137]
[1]
  levels of NAD+: increased levels of NAD+
  levels of nicotinamide: decreased levels of nicotinamide
  metabolite profile: distinct profile of metabolites
[2]
  effector functions (cytokines by FACS) of Golgi^lo T cells: partial restoration of their effector functions
[3]
  duration of sustained H2S release: up to 7 days
[4]
  SRC: significant increase
  maximal respiration: significant increase
[5]; FACS at day 0, 2, 4, 6, GYY4137 0.5 mM
  maintenance of increase in Tcm phenotype over time: consistently maintained over six days
[5]; GYY4137 0.5 mM, 3 days
  expression of Tcf7 and Sca1 (stemness markers): significantly enhanced the expression of Tcf7 and Sca1
[5]; Pmel T cells activated with gp100 + IL2, GYY4137 0.5 mM, compared to IL2 alone
  Tcm phenotype (CD62L+CD44+ co-expression): significant increase in the Tcm phenotype
[6]
  free thiols / abundance of ER proteins Prdx4, Ero1, MANF1, Rp17a: enhanced abundance or an increase in the extent of free thiols
  free thiols at cysteine 54 in Prdx4: increase in free thiols at cysteine 54 in Prdx4
[7]
  Golgi organization (giantin, confocal): more compact Golgi organization
[8]
  nuclear localization of Foxo1: increased nuclear localization of Foxo1
[9]
  basal respiration: did not alter basal respiration
  maximal respiration: significant increase
  spare respiratory capacity (SRC): significant increase
[10]
  GM130 expression: significantly higher GM130 expression
  PD1 expression: lower PD1 expression
